Assay results published in ChEMBL document CHEMBL4828716, “Further investigation of harmicines as novel antiplasmodial agents: Synthesis, structure-activity relationship and insight into the mechanism of action” (Eur J Med Chem, 2021).
The source made the active and inactive calls. The calls are words filed in the database; no cut-off is given here.

Experiments:
Plasmodium falciparum [1] = assay: Antiplasmodial activity against chloroquine-sensitive erythrocytic stage Plasmodium falciparum 3D7 assessed as inhibition of parasite growth incubated for 3 days by HRP2-ELISA; assay type: functional, organism-based; details: 3D7, 72 h
Plasmodium falciparum [2] = assay: Antiplasmodial activity against chloroquine-resistant erythrocytic stage Plasmodium falciparum Dd2 assessed as inhibition of parasite growth incubated for 3 days by HRP2-ELISA; assay type: functional, organism-based; details: Dd2, 72 h
Plasmodium berghei = assay: Antiplasmodial activity against hepatic stage Plasmodium berghei infected in Huh-7 cells assessed as cell viability incubated for 1 hrs by bioluminescence assay; assay type: functional, organism-based
HepG2 = assay: Cytotoxicity against human HepG2 cells assessed as cell growth inhibition incubated for 1 day by neutral red assay; assay type: functional, cell-based; details: HepG2, 24 h
[3] = Selectivity index, ratio of IC50 for human HepG2 cells to IC50 for […] erythrocytic stage Plasmodium falciparum 3D7; assay type: toxicity; details: read-out: Selectivity Index

| Compound | IC50 (Plasmodium falciparum [1]) [µM] | IC50 (Plasmodium falciparum [2]) [µM] | Activity (Plasmodium berghei) | IC50 (HepG2) [µM] | selectivity ratio [3] | IC50 (Plasmodium berghei; Huh-7, 1 h) [µM] |
| --- | --- | --- | --- | --- | --- | --- |
| Cc1nc(CNC(=O)/C=C/c2cccc(F)c2)cc2c1[nH]c1ccccc12 | 5.74 | 12.7 | Active | 15.8 | 2.76 |  |
| Cc1nc(CNC(=O)/C=C/c2cccc(C(F)(F)F)c2)cc2c1[nH]c1ccccc12 | 2.01 | 7.4 | Active | 9.37 | 4.66 |  |
| Cc1nccc2c1[nH]c1ccc(OCc3cn(C/C=C/c4ccc(Cl)cc4)nn3)cc12 | 0.57 | 0.95 | Active | 3.95 | 6.93 |  |
| Cc1nccc2c1[nH]c1ccc(OCCNC(=O)/C=C/c3ccc(F)cc3)cc12 | 0.95 | 1.67 | Active | > 250 | > 263 |  |
| COc1ccc2c3ccnc(C)c3n(CCNC(=O)/C=C/c3cccc(C(F)(F)F)c3)c2c1 | 0.06 | 0.33 |  | 66.3 | 1110 | 1.9 |
| Cc1nccc2c1[nH]c1ccc(OCCNC(=O)/C=C/c3cccc(F)c3)cc12 | 1.11 | 1.3 | Active | 37.6 | 33.9 |  |
| O=C(/C=C/c1ccc(C(F)(F)F)cc1)NCc1nccc2c1[nH]c1ccccc12 | > 55.6 | > 55.6 |  |  |  |  |
| O=C(/C=C/c1ccccc1)NCc1nccc2c1[nH]c1ccccc12 | > 28 | > 55.6 |  |  |  |  |
| Cc1nccc2c1[nH]c1ccc(OCCNC(=O)/C=C/c3cccc(C(F)(F)F)c3)cc12 | 0.12 | 0.32 | Active | 6.14 | 51.2 |  |
| COc1ccc(/C=C/Cn2cc(COc3ccc4[nH]c5c(C)nccc5c4c3)nn2)cc1 | 0.6 | 1.81 | Active | 88 | 147 |  |
| Cc1nccc2c1[nH]c1ccc(OCCNC(=O)/C=C/c3ccc(Cl)cc3)cc12 | 0.36 | 0.92 | Active | > 250 | > 694 |  |
| O=C(/C=C/c1cccc(F)c1)OCc1cn(Cc2nccc3c2[nH]c2ccccc23)nn1 | > 17.3 | > 20.1 |  |  |  |  |
| COc1ccc(/C=C/C(=O)NCc2cc3c([nH]c4ccccc43)c(C)n2)cc1 | 6.5 | 10.7 | Active | 10.4 | 1.6 |  |
| O=C(/C=C/c1ccc(F)cc1)NCc1nccc2c1[nH]c1ccccc12 | > 13.9 | > 13.9 |  |  |  |  |
| Cc1nccc2c1[nH]c1ccc(OCCNC(=O)/C=C/c3ccc(C(F)(F)F)cc3)cc12 | 0.12 | 0.35 | Active | 3.59 | 29.9 |  |
| Cc1nc(CNC(=O)/C=C/c2ccc(Cl)cc2)cc2c1[nH]c1ccccc12 | 2.92 | 8.38 | Active | 11.3 | 3.88 |  |
| Cc1nc(CO)cc2c3ccccc3n(Cc3cn(C/C=C/c4cccc(Br)c4)nn3)c12 | 6.28 | 18.4 | Active | > 125 | > 19.9 |  |
| O=C(/C=C/c1cccc(Br)c1)NCc1nccc2c1[nH]c1ccccc12 | > 27.8 | > 27.8 |  |  |  |  |
| Cc1nc(Cn2cc(COC(=O)/C=C/c3cccc(F)c3)nn2)cc2c1[nH]c1ccccc12 | > 27.8 | > 27.8 | Active |  |  |  |
| COc1ccc2c(c1)[nH]c1c(C)nccc12 [HARMINE] |  | > 27.7 |  | > 250 | 30 |  |
| Cc1nc(CNC(=O)/C=C/c2ccc(C(F)(F)F)cc2)cc2c1[nH]c1ccccc12 | 2.3 | 5.97 | Active | 33.3 | 14.5 |  |
| Cc1nc(CNC(=O)/C=C/c2ccccc2)cc2c1[nH]c1ccccc12 | 5.78 | 10.2 | Active | 7.05 | 1.29 |  |

| Compound | IC50 (Plasmodium falciparum [1]) [µM] | IC50 (Plasmodium falciparum [2]) [µM] | Activity (Plasmodium berghei) | IC50 (HepG2) [µM] | selectivity ratio [3] | IC50 (Plasmodium berghei; Huh-7, 1 h) [µM] |
| --- | --- | --- | --- | --- | --- | --- |
| COc1ccc(/C=C/C(=O)NCCOc2ccc3[nH]c4c(C)nccc4c3c2)cc1 | 1.17 | 2.86 | Active | > 250 | > 214 |  |
| O=C(/C=C/c1cccc(F)c1)NCc1nccc2c1[nH]c1ccccc12 | > 27.8 | > 27.8 |  |  |  |  |
| Cc1nc(CO)cc2c3ccccc3n(Cc3cn(C/C=C/c4ccccc4)nn3)c12 | > 27.8 | > 19.8 | Active |  |  |  |
| Cc1nccc2c1[nH]c1ccc(OCc3cn(C/C=C/c4ccccc4)nn3)cc12 | 0.61 | 2.12 | Active | 10.1 | 16.6 |  |
| O=C(/C=C/c1cccc(Br)c1)OCc1cn(Cc2nccc3c2[nH]c2ccccc23)nn1 | > 13.2 | > 19.1 |  |  |  |  |
| Cc1nc(Cn2cc(COC(=O)/C=C/c3ccccc3)nn2)cc2c1[nH]c1ccccc12 | > 20 | > 27.8 | Active |  |  |  |
| COc1ccc(/C=C/C(=O)NCc2nccc3c2[nH]c2ccccc23)cc1 | > 27.8 | > 27.8 |  |  |  |  |
| Cc1nc(CNC(=O)/C=C/c2cccc(Br)c2)cc2c1[nH]c1ccccc12 | 3.23 | 1.48 | Active | 9.64 | 2.98 |  |
| Cc1nc(CO)cc2c3ccccc3n(Cc3cn(C/C=C/c4ccc(Cl)cc4)nn3)c12 | > 19.9 | > 23.6 | Active |  |  |  |
| COc1ccc(/C=C/C(=O)OCc2cn(Cc3cc4c([nH]c5ccccc54)c(C)n3)nn2)cc1 | > 27.8 | > 27.8 | Active |  |  |  |
| O=C(/C=C/c1ccc(Cl)cc1)NCc1nccc2c1[nH]c1ccccc12 | > 27.8 | > 27.8 |  |  |  |  |
| Cc1nc(CNC(=O)/C=C/c2ccc(F)cc2)cc2c1[nH]c1ccccc12 | 4.13 | 13.3 | Active | 12.5 | 2.99 |  |
| O=C(/C=C/c1ccccc1)OCc1cn(Cc2nccc3c2[nH]c2ccccc23)nn1 | > 27.8 | > 20.2 |  |  |  |  |
| Cc1nccc2c1[nH]c1ccc(OCc3cn(C/C=C/c4cccc(F)c4)nn3)cc12 | 0.55 | 2.28 | Active | 10.5 | 19.1 |  |
| COc1ccc(/C=C/C(=O)OCc2cn(Cc3nccc4c3[nH]c3ccccc34)nn2)cc1 | > 55.6 | 39.2 |  |  |  |  |
| Cc1nc(Cn2cc(COC(=O)/C=C/c3cccc(Br)c3)nn2)cc2c1[nH]c1ccccc12 | 16.4 | 11.1 | Active | 110 | 6.71 |  |
| O=C(/C=C/c1cccc(C(F)(F)F)c1)NCc1nccc2c1[nH]c1ccccc12 | > 27.8 | > 27.8 |  |  |  |  |
| Cc1nccc2c1[nH]c1ccc(OCc3cn(C/C=C/c4cccc(Br)c4)nn3)cc12 | 0.26 | 0.73 | Active | 6.13 | 23.6 |  |
| Cc1nccc2c1[nH]c1ccc(OCCNC(=O)/C=C/c3ccccc3)cc12 | 1.55 | 2.47 | Active | 12 | 7.75 |  |
| O=C(/C=C/c1ccc(Cl)cc1)OCc1cn(Cc2nccc3c2[nH]c2ccccc23)nn1 | > 55.6 | > 55.6 |  |  |  |  |
| COc1ccc(/C=C/Cn2cc(Cn3c4ccccc4c4cc(CO)nc(C)c43)nn2)cc1 | 18.2 | > 16.9 | Active |  |  |  |
